Common to all, as to assay type: in vivo, rat
Assay [1] concerns obese Zucker Diabetic Fatty (ZDF) rats. The experiment in a line: Pituitary LH content by radioimmunoassay in animal model of human infertility. The following applies: treated obese ZDF rats, oral 10 mg/kg/day, end of study; obese control 8.1±0.6, lean 6.3±0.6; p<0.05 vs control. Here is the method:
(§1) Obese Zucker Diabetic Fatty males and females as well as fertile lean males and females were put into individual cages and fed with Purina 5008 (6.5% fat). At 6.5 weeks of life, obese rats were randomized into 3 groups: • 1. Control group—obese ZDF rats (n=8) treated with vehicle. • 2. Once-daily treatment group—obese ZDF rats (n=8) given the compound of Example 1B orally once daily (10 mg/kg/day). • 3. Twice-daily treatment group—obese ZDF rats (n=8) given the compound of Example 1B orally twice daily (10 mg/kg/day). Methods
(§2) Blood and pituitaries of lean and obese rats were collected at the end of the study. Pituitary LH and plasma testosterone concentrations were measured by radioimmunoassay. Estrous cyclicity was evaluated by observation of vaginal smear.

Assay [2] concerns obese Zucker Diabetic Fatty (ZDF) male rats. Nature of the assay: Plasma testosterone by radioimmunoassay in animal model of human infertility. The following applies: treated obese ZDF males, oral 10 mg/kg/day, end of study; obese 1145±328, lean 2410±239; NS vs lean. Here is the method:
as §1, §2

The subject of assay [3] is obese Zucker Diabetic Fatty (ZDF) female rats. Nature of the assay: Estrous cyclicity by observation of vaginal smear in animal model of human infertility. The following applies: oral 10 mg/kg/day, untreated obese females had abnormal cyclicity vs lean. Here is the method:
as §1, §2

Consider `CC(C)(C)[C@H](N)C(=O)N1CCC[C@H]1C#N` [Example 1B, (2S)-N-((2′S)-2′-amino-3′,3′-dimethylbutanoyl)pyrrolidine-2-carbonitrile], for which the “Pituitary LH content” value in assay [1] is given as 5.2±0.4 μg/pituitary. The same compound gave a Plasma testosterone level in assay [2] of 2390 ± 759 pg/mL. Further, the Estrous cyclicity result in assay [3] is “normalised estrous cyclicity”.
